# Data reported in patent US5646014A, “Peptide, antibacterial agent, peptide gene, recombinant DNA and method for preparing the peptide” (Agriculture, Forestry and Fisheries Technical Information …, priority 1994, dated 1997).
# Assays:
# Type in all cases: cell-based
# [1] = test system: Bacillus cereus IF03457; assay: Minimum inhibitory concentration (M.I.C.), liquid medium; details: NB medium, 30° C. for 20 hours
# Experimental: (§1) In order to examine the antibacterial activity of the moricin obtained in Example 1 against various bacteria, the mimimum inhibitory concentration (M.I.C.) of moricin was measured based on the method described in Eur. J. Biochem., 187:381-386 (1990).
# (§2) When E. coli and Staphylococcus aureus subsp. aureus were used as test bacteria, brain heart infusion medium (BHI medium, Difco) was used. When Bacillus cereus was used as a test bacterium, nutrient broth medium (NB medium, Difco) was used.
# (§3) To a test medium suspending a test bacterium at a concentration of 4×10^4 cells/ml, an equal volume of the same medium containing moricin at varied concentrations was added and incubated at 30° C. for 20 hours. After the incubation, an equal volume of 6% formalin was added thereto to give a two-fold dilution. Then, the degree of cell proliferation was examined by measuring the absorbance at 650 nm. As a control, cecropin B1 [Comp. Biochem. Physiol. 95B:551 (1990)] was used which is a known antibacterial peptide derived from silkworm.
# [2] = test system: Escherichia coli JM109; assay: as above; details: BHI medium, 30° C. for 20 hours
# Experimental: as §1, §2, §3
# [3] = test system: Staphylococcus aureus subsp. aureus ATCC 6538P; assay: as above; details: BHI medium, 30° C. for 20 hours
# Experimental: as §1, §2, §3
# [4] = test system: Bacillus cereus IF03457; assay: Growth inhibition zone on agarose plate (Test Example 2); details: 2 μl of 50 μM solution per well, NB plate, no sodium chloride, 2.0 mm = no zone
# Experimental: (§4) The antibacterial activity of the moricin obtained in Example 1 against various bacteria was examined based on the method described in Nature, 292:246 (1981).
# (§5) NB plate medium containing 0.8% agarose (optionally, sodium chloride was added thereto to give a concentration of 150 mM) was used.
# (§6) 50 μM moricin solution was prepared. 2 μl of this solution was added to each well of a plate medium into which a test bacterium had been inoculated. The plate was incubated at 30° C. overnight and then diameters of the growth inhibition zones formed were measured. As a control, cecropin B1 was used. Incidentally, the diameter of the well was 2.0 mm.
# [5] = test system: Bacillus megaterium IAM1030; assay: as above; details: 2 μl of 50 μM solution per well, NB plate, no sodium chloride, 2.0 mm = no zone
# Experimental: as §4, §5, §6
# [6] = test system: Bacillus subtilis IAM1107; assay: as above; details: 2 μl of 50 μM solution per well, NB plate, no sodium chloride, 2.0 mm = no zone
# Experimental: as §4, §5, §6
# [7] = test system: Escherichia coli JM109; assay: as above; details: 2 μl of 50 μM solution per well, NB plate, no sodium chloride, well 2.0 mm, 2.0 mm = no zone
# Experimental: as §4, §5, §6
# [8] = test system: Pseudomonas aeruginosa IAM1514; assay: as above; details: 2 μl of 50 μM solution per well, NB plate, no sodium chloride, 2.0 mm = no zone
# Experimental: as §4, §5, §6
# [9] = test system: Pseudomonas fluorescens IAM1179; assay: as above; details: 2 μl of 50 μM solution per well, NB plate, no sodium chloride, 2.0 mm = no zone
# Experimental: as §4, §5, §6
# [10] = test system: Staphylococcus aureus ATCC6538P; assay: as above; details: 2 μl of 50 μM solution per well, 2.0 mm = no zone
# Experimental: as §4, §5, §6
# [11] = test system: Staphylococcus aureus IF03083; assay: as above; details: 2 μl of 50 μM solution per well, NB plate, no sodium chloride, 2.0 mm = no zone
# Experimental: as §4, §5, §6
# [12] = test system: Staphylococcus epidermidis IF012993; assay: as above; details: 2 μl of 50 μM solution per well, NB plate, no sodium chloride, 2.0 mm = no zone
# Experimental: as §4, §5, §6
# [13] = test system: Staphylococcus xylosus IAM1312; assay: as above; details: 2 μl of 50 μM solution per well, NB plate, no sodium chloride, 2.0 mm = no zone
# Experimental: as §4, §5, §6
# [14] = test system: Streptococcus pyogenes ATCC21547; assay: as above; details: 2 μl of 50 μM solution per well, BHI plate, no sodium chloride, 2.0 mm = no zone
# Experimental: as §4
# When Streptococcus pyogenes was used as a test bacterium, 0.8% agarose-containing BHI plate medium was used.
# as §6
substance,measurement,setting,value
"Cecropin B1: known antibacterial peptide derived from silkworm, used as a control (RWKIFKKIEKMGRNIRDGIVKAGPAIEVLGSAKAI; UniProt P04142 27-61, looked up)",M.I.C.,[1],> 16 µg/mL
same,M.I.C.,[2],< 1 µg/mL
same,M.I.C.,[3],> 16 µg/mL
same,Diameter of the Inhibition Zone,[4],2.0 mm
same,Diameter of the Inhibition Zone,[5],10.9 mm
same,Diameter of the Inhibition Zone,[6],7.8 mm
same,Diameter of the Inhibition Zone,[7],10.1 mm
same,Diameter of the Inhibition Zone,[8],7.9 mm
same,Diameter of the Inhibition Zone,[9],8.9 mm
same,Diameter of the Inhibition Zone,[10]; NB plate with 150 mM sodium chloride,2.3 mm
same,Diameter of the Inhibition Zone,"[10]; NB plate, no sodium chloride",6.9 mm
same,Diameter of the Inhibition Zone,[11],2.0 mm
same,Diameter of the Inhibition Zone,[12],9.0 mm
same,Diameter of the Inhibition Zone,[13],2.0 mm
same,Diameter of the Inhibition Zone,[14],2.0 mm
